Source: US5498624A, “Selected pyrazolyl derivatives” (Monsanto Company, priority 1995, dated 1996)

Assays:
Assay type in all cases: in vivo
[1] = tested on: Erysiphe graminis f. sp. tritici; assay: Wheat Powdery Mildew Foliar Assay (WPM Prot)
Description: A) Pathogen/Inoculum Production--Leaf material infected with the wheat powdery mildew fungus, Erysiphe graminis f. sp. tritici, is maintained continuously on wheat seedlings, cv. Caldewell.
(B) Host Propagation, (C) Compound Preparation and (D) Compound Application follow as per Example 1.
(E) Inoculation/Incubation--Inoculation of the test plants takes place 24 hours after compound application. Inoculation is accomplished by gently shaking plants previously infected with the Erysiphe graminis f. sp. tritici fungus over the test plants. This process liberates a cloud of spores which effectively and uniformly fall onto the test plants. After inoculation the plants are returned to the environmental conditions under which they were grown.
(F) Evaluation and (G) Data follow as per Example 1. The percent protection values for the compounds of the present invention are as set out in the Table below.

[2] = tested on: Botrytis cinerea; assay: Vine Grey Mold on Berries (VGM Prot); settings: grape berries, inoculated 24 hours after treatment
Description: A) Pathogen/Inoculum Production--The grey mold fungus, Botrytis cinerea, is cultured on PDA at 20° C. and 12 hours fluorescent light until the radial growth is slightly less than the plate diameter. A 1×10^6spore/ml suspension in sterile water (0.05% Tween®20) is made by dislodging spores in a flooded plate, filtering out mycelium, and adjusting the concentration.
B) Host Preparation--Thompson or Red Flame seedless table grapes from local grocery stores are used. Grapes are washed first in room temperature soapy water solution (a few drops of detergent per gallon), and then surfaced sterilized in 70% ethanol for one minute, followed by two rinses in sterile water. Berries are chosen which still have stem (pedicel) attached.
1) Experimental compounds--Each of the compounds of the present invention are applied at 200, 50, and 20 ppm. Formulation is generally in 40% acetone, 59.95% water, and 0.05% Tween®20. Replication is 6 berries per treatment. Compound is pipetted onto berries at 1.0 ml/treatment (6 berries) in a sterile petri plate. After drying, each berry is transferred to an individual well in a 12-well tissue culture plate. Formulated materials, such as commercial preparations are generally applied using the formulation only (no acetone or surfactant added).
2) Controls and Standards--Three technical grade commercial standards are used, usually at 200 and 50 ppm; benomyl, iprodione, and vinclozolin. The test controls include a uninoculated, formulation treated set as well as an inoculated, formulation treated set.
D) Inoculation/Incubation--Each berry is inoculated with 0.2 ml of spore suspension, using a sterile pipet. Incubation is in the 12-well culture plates at 20° C., 12 hour photoperiod.
E) Test Execution--One day protectant--Berries are inoculated as described 24 hours after chemical treatment.
F) Evaluation--The test is rated 7-10 days after inoculation. Percent surface area infected with disease is determined for each replicate using the values of 0, 1, 2, 5, 10, 15, 20, 25, etc. through 100%. Treatment means are calculated and percent disease control is determined by the formula "(control mean--treatment mean)*100/control mean". The untreated/inoculated control treatment is used for this calculation. The resultant percent protection or percent disease control values for the compounds of the present invention are as set out in the Table below.

[3] = tested on: Septoria nodorum; assay: Wheat Glume Blotch Foliar Assay, protectant (WGB Prot); settings: application two days pre-inoculation
Description: A) Host Propagation--Winter wheat plants, cv. Caldwell, are grown in 5.7 cm^2 pots, three per pot, and maintained in a growth chamber set at 20° C., 80% RH with a 12 hour photoperiod.
B) Compound Preparation--A 1.0% stock solution of each of the compounds of the present invention is first prepared utilizing an appropriate solvent such as acetone, water or DMSO. This stock is then used to prepare the final spray solution which contains the compound at the desired dosage, eg 100 ppm and 20 ppm, acetone at 20% v/v, Tween®20 at .05% w/v, and water at about 80%. Commercial standard used is tebuconazole at equivalent rates.
C) Compound Application, Seedlings are sprayed at the two-leaf stage (GS 12) using a DeVilbiss Model 152 hand operated sprayer set at 15-20 psi. Six ml of the test solution per treatment are applied to three pots. In the protectant assay (EXAMPLE 8), the compound application is made two days pre-inoculation. In the curative assay (EXAMPLE 9), the compound is applied during a brief interruption of the disease incubation period two days post-inoculation.
D) Pathogen Production/Inoculation--The wheat glume blotch fungus, Septoria nodorum, is maintained in the pycnidial state on yeast malt agar (YMA) and transferred weekly by streaking a suspension of conidia obtained from a ten to twelve day old sporulating culture onto fresh YMA plates. The plates are incubated at 20° C. with a 12 hour photoperiod.
Test inoculum is prepared by flooding seven day old culture plates with deionized water amended with Tween®20 (0.1% v/v) and gently scraping the pycnidia to release the extruding masses of conidia. The resulting spore suspension is filtered through two layers of cheese cloth and adjusted to 4×10^6 spores/ml utilizing the Tween®20 solution.
Forty-eight hours after the compound application and prior to inoculation, the test plants are preconditioned for at least one hour in a dark growth chamber set at 20° C. and 100% RH. After the preconditioning period is over, the conidial suspension is applied to run-off using a DiVilbiss hand operated sprayer. The plants are then returned to the preconditioning chamber and incubated at the same settings for 96 hours. Light is supplied to the plants during the last twelve hours of incubation. At the end of the 96 hour period, the plants are returned to the environmental conditions under which they were grown.
E) Test Evaluation--Eight to ten days after removal from the high humidity chamber, or twelve to fourteen days after inoculation, treatments are evaluated by visually estimating the percentage of the leaf area (on the first leaf) covered with lesions. Three ratings are made on each pot which constitutes a replicate. Each replicate then receives a numerical mean by averaging the three values. Percent disease, as well as percent control values are calculated. The percent control values obtained from these assays for the compounds of the present invention are as set out in the Table below.

[4] = 20 ppm foliar protectant, * = averaged value
[5] = 100 ppm foliar protectant, * = averaged value

Compound: C[C@H]1CCC[C@H](c2ccccc2NC(=O)c2cn(C)nc2C(F)F)C1 (relative stereo) [Number 3, 1H-pyrazole-4-carboxamide, 3-(difluoromethyl)-1-methyl-N-[2-(3-methylcyclohexyl)phenyl]-, trans-]
- WPM Prot percent disease control [1, 4]: 77%
- WPM Prot percent disease control [1, 5]: 100%
- VGM Prot percent disease control ([2]; 20 ppm, * = averaged value): 67%
- VGM Prot percent disease control ([2]; 50 ppm, * = averaged value): 87%
- WGB Prot percent control ([3]; 20 ppm, * = averaged value): 79%
- WGB Prot percent control ([3]; 100 ppm, * = averaged value): 90%

Compound: CC[C@H]1CC[C@@H](c2ccccc2NC(=O)c2cn(C)nc2C(F)F)CC1 [Number 1, 1H-pyrazole-4-carboxamide, 3-(difluoromethyl)-N-[2-(4-ethylcyclohexyl)phenyl]-1-methyl-, cis-]
- VGM Prot percent disease control ([2]; 50 ppm, * = averaged value): 93%
- VGM Prot percent disease control ([2]; 200 ppm): 99%

Compound: Cn1cc(C(=O)Nc2ccccc2[C@@H]2CCC[C@@H](C(F)(F)F)C2)c(C(F)F)n1 (relative stereo) [Number 6]
- WPM Prot percent disease control ([1]; 500 ppm foliar protectant): 98%
- WGB Prot percent control ([3]; 20 ppm, * = averaged value): 70%
- WGB Prot percent control ([3]; 100 ppm, * = averaged value): 86%
- WGB Prot percent control ([3]; 500 ppm, wheat): 89%

Compound: C[C@@H]1CCC[C@H](c2ccccc2NC(=O)c2cn(C)nc2C(F)F)C1 (relative stereo) [Number 2, 1H-pyrazole-4-carboxamide, 3-(difluoromethyl)-1-methyl-N-[2-(-3-methylcyclohexyl)phenyl]-, cis-]
- WPM Prot percent disease control [1, 4]: 44%
- WPM Prot percent disease control [1, 5]: 65%
- VGM Prot percent disease control ([2]; 20 ppm, * = averaged value): 90%
- VGM Prot percent disease control ([2]; 50 ppm, * = averaged value): 93%
- VGM Prot percent disease control ([2]; 200 ppm): 99%
- WGB Prot percent control ([3]; 20 ppm, * = averaged value): 56%
- WGB Prot percent control ([3]; 100 ppm, * = averaged value): 86%
- WGB Prot percent control ([3]; 500 ppm, wheat): 99%

Compound: Cn1cc(C(=O)Nc2ccccc2C2CCC(C)(C)CC2)c(C(F)F)n1 [Number 5, 1H-pyrazole-4-carboxamide, 3-(difluoromethyl)-N-(2-(4,4-dimethylcyclohexyl)phenyl]-1-methyl-]
- WPM Prot percent disease control [1, 4]: 52%
- WPM Prot percent disease control [1, 5]: 79%
- WPM Prot percent disease control ([1]; 500 ppm foliar protectant): 92%
- WGB Prot percent control ([3]; 20 ppm, * = averaged value): 47%
- WGB Prot percent control ([3]; 100 ppm, * = averaged value): 93%

Compound: Cn1cc(C(=O)Nc2ccccc2[C@H]2CC[C@H](C)CC2)c(C(F)(F)F)n1 [Number 4, 1H-pyrazole-4-carboxamide, 1-methyl-N-[2-(4-methylcyclohexyl)phenyl]-3-(trifluoromethyl)-, trans-]
- WPM Prot percent disease control [1, 4]: 65%
- WPM Prot percent disease control [1, 5]: 91%
- WPM Prot percent disease control ([1]; 500 ppm foliar protectant): 100%
- VGM Prot percent disease control ([2]; 20 ppm, * = averaged value): 41%
- VGM Prot percent disease control ([2]; 50 ppm, * = averaged value): 67%
- WGB Prot percent control ([3]; 20 ppm, * = averaged value): 81%
- WGB Prot percent control ([3]; 100 ppm, * = averaged value): 97%
